{
  "source": "patent US20110268789A1",
  "about": "“USE OF PITUITARY ADENYLATE CYCLASE-ACTIVATING POLYPEPTIDE (PACAP) AND PACAP ANALOGS AS ADJUNCTIVE TREATMENTS WITH ANTICANCER AGENTS” (priority 2008, published 2011)",
  "key": {"[1]": {"system": "rat hippocampal neuron/glia co-cultures", "conditions": "cited from earlier work"}, "[2]": {"conditions": "normal human volunteers and a patient with multiple myeloma; cited from earlier work"}, "[3]": {"system": "light-chain immunoglobulin-secreting human myeloma cells", "assay": "Doxorubicin-induced apoptotic cell death of myeloma cells", "type": "cell-based", "procedure": "(§1) The light-chain immunoglobulin-secreting human myeloma cells were cultured in RPMI 1640 medium supplemented with 10% non-inactivated fetal bovine serum and 0.05 mM 2-mercaptoethanol. The effects of PACAP38, and [Ala^16,17,D-Lys^38]PACAP38 on apoptotic cell death was assessed by the quantitative determination of cytoplasmic histone-associated DNA-fragmentation (mono- and oligonucleosomes) after exposure to doxorubicin for 48 hours. Each value represents the mean plus/minus the standard deviation of three determinations. **p<0.01 and *p<0.05 compared to the doxorubicin-treated (control) cells.\nAt the lowest dose tested (10^−8 M), both peptides reduced the doxorubicin-induced apoptotic cell death of these malignant plasma cells."}, "HK-2 human kidney cells [4]": {"system": "HK-2 human kidney cells", "assay": "Cisplatin-induced apoptotic cell death of human renal proximal tubule epithelial cells (histone-associated DNA fragmentation)", "type": "cell-based", "conditions": "HK-2 cells, comparable concentrations, FIG. 4", "procedure": "(§2) The HK-2 human kidney cells were cultured in Keratinocyte-Serum Free Medium supplemented with recombinant epidermal growth factor and bovine pituitary extract. The dose-dependent inhibitory effect of PACAP38 on apoptotic cell death was assessed by the quantitative determination of cytoplasmic histone-associated DNA-fragmentation (mono- and oligonucleosomes) after exposure to cisplatin for 24 hours. Each value represents the mean plus/minus the standard error of four determinations in three replicate experiments. **p<0.01 compared to the cisplatin-treated (control) cells.\nas §2, with “deviation” for “error”, “different” for “replicate”, “**p<0.01 and *p<0.05” for “**p<0.01”"}, "[5]": {"system": "light-chain immunoglobulin-secreting human myeloma cells", "assay": "Carmustine-induced apoptotic cell death of myeloma cells", "type": "cell-based", "procedure": "as §1, with “[Ala^22]PACAP38” for “[Ala^16,17,D-Lys^38]PACAP38”, “carmustine” for “doxorubicin”, “carmustine-treated” for “doxorubicin-treated”"}, "[6]": {"system": "Jurkat human T-lymphocyte leukemia cells", "assay": "Etoposide-induced apoptotic cell death of leukemia cells", "type": "cell-based", "conditions": "Jurkat cells", "procedure": "The Jurkat human T-lymphocyte leukemia cells were cultured in RPMI 1640 medium supplemented with 10% non-inactivated fetal bovine serum. The effects of PACAP27 and PACAP38 on apoptotic cell death was assessed by the quantitative determination of cytoplasmic histone-associated DNA-fragmentation (mono- and oligonucleosomes) after exposure to etoposide for 48 hours. Each value represents the mean plus/minus the standard deviation of three determinations. **p<0.01 and *p<0.05 compared to the etoposide-treated (control) cells."}, "[7]": {"system": "PC-3 human prostate cancer cells", "conditions": "nude mice, PC-3 cells; cited from earlier work"}, "[8]": {"system": "NCI-H838 human non-small cell lung cancer cells", "conditions": "nude mice; cited from earlier work"}, "[9]": {"system": "MCF-7 human breast cancer cells", "conditions": "nude mice, MCF-7 cells; cited from earlier work"}, "[10]": {"conditions": "rat, in vivo, iv; cited from earlier work"}, "Male C57BL/6 mice": {"system": "Male C57BL/6 mice", "assay": "Cisplatin-induced nephrotoxicity in mice", "type": "in vivo, mouse", "conditions": "cisplatin 20 mg/kg i.p., FIG. 10", "procedure": "(§3) Male C57BL/6 mice were given a single intraperitoneal injection of 20 mg/kg of cisplatin. Twenty nanomoles of PACAP38 were given intraperitoneally 1 hour before the injection of cisplatin and additional doses were given at 24 and 48 hours after the initial dose. The control group of mice was injected intraperitoneally with the same volume of saline as for the injections of cisplatin and PACAP38 on the same schedule. The mice were euthanized 24 hours after the final injection of PACAP38. Each value represents the mean plus/minus the standard error of four determinations. ***p<0.001 and **p<0.01 compared to the group treated only with cisplatin.\nas §3, with “PACAP38. TNF-α was extracted from one kidney of each mouse and quantified with an enzyme-linked immunosorbent assay.” for “PACAP38.”\nMale C57BL/6 mice were given a single intraperitoneal injection of 20 mg/kg of cisplatin. Twenty nanomoles of PACAP38 were given intraperitoneally 1 hour before the injection of cisplatin and additional doses were given at 24 and 48 hours after the initial dose. The control group of mice were injected intraperitoneally with the same volume of saline as for the injections of cisplatin and PACAP38 on the same schedule. The mice were euthanized 24 hours after the final injection of PACAP38, and the kidneys were removed and fixed in 10% formalin. The fixed sections were stained with hematoxylin and eosin. The sections of the kidneys from control mice show intact renal tubular epithelial cells and well-preserved brush border membranes. The kidneys from mice treated with cisplatin had extensive tubular damage, tubular dilations, intratubular debris, and intratubular casts. […] Tubular damage was more pronounced in the outer cortex in the cisplatin treated mice. The photomicrographs on the left side were made at a lower magnification (×160) than the photomicrographs on the right side (×320). The results described in FIGS. 5, 6, 7, and 8 were from the same experiment.\nas §3, with “six” for “four”\nas §3, with “The cytoprotective effect of PACAP38 against cisplatin-induced nephrotoxicity was also seen in a common in vivo model. Male” for “Male”, “PACAP38.” for “PACAP38. Each value represents the mean plus/minus the standard error of four determinations. ***p<0.001 and **p<0.01 compared to the group treated only with cisplatin.”"}, "[11]": {"system": "MCF-7 human breast cancer cells", "assay": "Doxorubicin-induced apoptotic cell death of breast cancer cells", "type": "cell-based", "conditions": "MCF-7 cells", "procedure": "The MCF-7 human breast cancer cells were cultured in Eagle's Minimum Essential Medium supplemented with 10% non-inactivated fetal bovine serum and 0.05 mM 2-mercaptoethanol. The effects of PACAP38 and N-acetyl[Ala^16,17,D-Lys^38]PACAP38 on apoptotic cell death were assessed by the quantitative determination of cytoplasmic histone-associated DNA-fragmentation (mono- and oligonucleosomes) after exposure to doxorubicin for 48 hours. Each value represents the mean plus/minus the standard deviation of three determinations. **p<0.01 compared to the doxorubicin-treated (control) cells.\nAt the highest dose tested (10^−6 M), both peptides reduced the apoptotic cell death of these breast cancer cells by more than 50%."}, "L-132 human lung cells": {"system": "L-132 human lung cells", "assay": "Bleomycin-induced apoptotic cell death of human pulmonary epithelial cells", "type": "cell-based", "conditions": "L-132 cells, peptide added to the medium, FIG. 12", "procedure": "The L-132 human lung cells were cultured in Eagle's Minimum Essential Medium supplemented with 10% fetal bovine serum. […] Each value represents the mean plus/minus the standard deviation of four determinations in three replicate experiments. **p<0.01 and *p<0.05 compared to the bleomycin-treated (control) cells.\nAt the highest dose tested (10^−6 M), all three peptides reduced the apoptotic cell death of these epithelial cells by more than 60%. […] Therefore, pre- and/or post-treatment of subjects undergoing bleomycin-based cancer chemotherapy with therapeutic doses of PACAP38 and/or PACAP analogs should result in a higher maximal tolerable dose of bleomycin, and an increased frequency of partial clinical responses and/or an increased number of complete remissions."}, "[12]": {"system": "PC-12 rat pheochromocytoma cells", "assay": "Cisplatin-induced apoptotic cell death of pheochromocytoma cells", "type": "cell-based", "conditions": "PC-12 cells", "procedure": "The PC-12 rat pheochromocytoma cells were cultured in F-12K medium supplemented with 15% horse serum and 2.5% fetal bovine serum. The dose-dependent inhibitory effects of PACAP38 and the PACAP38 analogs on apoptotic cell death were assessed by the quantitative determination of cytoplasmic histone-associated DNA-fragmentation (mono- and oligonucleosomes) after exposure to cisplatin for 24 hours. Each value represents the mean plus/minus the standard error of four determinations. **p<0.01 and *p<0.05 compared to the cisplatin-treated (control) cells."}, "HK-2 human kidney cells [13]": {"system": "HK-2 human kidney cells", "assay": "Doxorubicin-induced apoptotic cell death of human renal proximal tubule epithelial cells", "type": "cell-based", "conditions": "HK-2 cells, peptide added to the medium, FIG. 11", "procedure": "The HK-2 human kidney cells were cultured in Keratinocyte-Serum Free Medium supplemented with recombinant epidermal growth factor and bovine pituitary extract. […] Each value represents the mean plus/minus the standard deviation of four determinations in three replicate experiments. **p<0.01 and *p<0.05 compared to the doxorubicin-treated (control) cells.\nAt the highest dose tested (10^−6 M), all three peptides reduced the apoptotic cell death of these epithelial cells by more than 60%."}},
  "note": "Square brackets hold non-standard residues; d marks the D form. Ends that are not written are not given here.",
  "data": [
    {"substance": "pituitary adenylate cyclase-activating polypeptide [PACAP]", "values": [
      {"measurement": "peak of bimodal dose-response curve for prevention of gp120-induced neuronal death (lower peak)", "setting": "[1]", "value": "10^−13 M"},
      {"measurement": "peak of bimodal dose-response curve for prevention of gp120-induced neuronal death (upper peak)", "setting": "[1]", "value": "10^−10 M"},
      {"measurement": "untoward effect reported", "setting": "[2]", "value": "transient flushing"}
    ]},
    {"substance": "[Ala^16,Ala^17,D-Lys^38]PACAP38 (HSDGIFTDSYSRYRKAAAVKKYLAAVLGKRYKQRVKN[dK]; ends and bridges not checked) [[Ala^16,17,D-Lys^38]PACAP38]", "values": [
      {"measurement": "effect on doxorubicin-induced apoptotic cell death (dose-response)", "setting": "[3]; doxorubicin 48 hours, FIG. 16", "value": "biphasic dose-response effect"},
      {"measurement": "effect on doxorubicin-induced apoptotic cell death", "setting": "[3]; highest dose tested (10^−6 M)", "value": "small, but not significant, enhancement"},
      {"measurement": "effect on doxorubicin-induced apoptotic cell death", "setting": "[3]; lowest dose tested (10^−8 M)", "value": "reduced"}
    ]},
    {"substance": "[Aib^2]PACAP38", "values": [
      {"measurement": "relative effectiveness as protectants against cisplatin-induced apoptotic cell death", "setting": "HK-2 human kidney cells [4]", "value": "similarly effective"}
    ]},
    {"substance": "[Ala^22]PACAP38 (HSDGIFTDSYSRYRKQMAVKKALAAVLGKRYKQRVKNK; ends and bridges not checked)", "values": [
      {"measurement": "effect on carmustine-induced apoptotic cell death", "setting": "[5]; carmustine 48 hours, FIG. 17", "value": "enhancement"},
      {"measurement": "effect on carmustine-induced apoptotic cell death", "setting": "[5]; highest dose tested (10^−6 M)", "value": "significantly enhanced"}
    ]},
    {"substance": "PACAP27 (HSDGIFTDSYSRYRKQMAVKKYLAAVL-NH2)", "values": [
      {"measurement": "reduction in etoposide-induced apoptotic cell death", "setting": "[6]; etoposide 48 hours, FIG. 15", "value": "small reduction"},
      {"measurement": "significance of the reduction of etoposide-induced apoptotic cell death", "setting": "[6]; highest dose tested 10^−6 M", "value": "did not have a significant effect"}
    ]},
    {"substance": "PACAP(6-38) (FTDSYSRYRKQMAVKKYLAAVLGKRYKQRVKNK; ends and bridges not checked; UniProt P18509 137-169, looked up, fragment) [a PACAP/VIP receptor antagonist]", "values": [
      {"measurement": "growth of xenografts", "setting": "[7]", "value": "inhibited the growth"},
      {"measurement": "growth of xenografts", "setting": "[8]", "value": "inhibited the growth"},
      {"measurement": "growth of xenografts", "setting": "[9]", "value": "inhibited the growth"}
    ]},
    {"substance": "[^125I]-PACAP38", "values": [
      {"measurement": "half-life in the bloodstream", "setting": "[10]", "value": "5 to 6", "unit": "min"}
    ]},
    {"substance": "[D-Ser^2,Lys^38-palmitoyl]PACAP38", "values": [
      {"measurement": "relative potency as cytoprotectants against cisplatin-induced impairment of kidney function (serum creatinine)", "setting": "Male C57BL/6 mice", "value": "less potent"}
    ]},
    {"substance": "N-acetyl[Ala^16,17,D-Lys^38]PACAP38", "values": [
      {"measurement": "relative potency in reducing doxorubicin-induced apoptotic cell death", "setting": "[11]", "value": "slightly more potent than PACAP38"},
      {"measurement": "reduction in doxorubicin-induced apoptotic cell death", "setting": "[11]; doxorubicin 48 hours, FIG. 14", "value": "dose-dependent reduction"}
    ]},
    {"substance": "[Lys^34]PACAP38 (HSDGIFTDSYSRYRKQMAVKKYLAAVLGKRYKQKVKNK; ends and bridges not checked)", "values": [
      {"measurement": "reduction in bleomycin-induced apoptotic cell death", "setting": "L-132 human lung cells", "value": "significant dose-dependent reduction"},
      {"measurement": "reduction in cisplatin-induced apoptotic cell death", "setting": "[12]; cisplatin 24 hours, FIG. 13", "value": "dose-dependent reduction"},
      {"measurement": "reduction of cisplatin-induced apoptotic cell death", "setting": "[12]; highest dose tested (10^−6 M)", "value": "significantly reduced"},
      {"measurement": "reduction in doxorubicin-induced apoptotic cell death", "setting": "HK-2 human kidney cells [13]", "value": "significant dose-dependent reduction"}
    ]}
  ]
}
